Data published in PubChem BioAssay (NCI).
“And” between values parts separate entries of the source, which are not always exact repeats. Equal values may be shown once.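 Method: 48-hour compound exposure of cells in 96-well plates, five concentrations, linear interpolation of endpoints. The concentration for 50% growth inhibition is given as GI50. At the TGI there is no net growth.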

Tests used:
Test in all cases: growth of human tumour cells (NCI), 48 h
[1] = system: OVCAR-5 ovarian
[2] = system: MCF7 breast
[3] = system: SF-539 CNS
[4] = system: UACC-257 melanoma
[5] = system: PC-3 prostate
[6] = system: UO-31 renal
[7] = system: K-562 leukemia
[8] = system: NCI-H460 lung
[9] = system: HS 578T breast
[10] = system: MOLT-4 leukemia

SMILES	GI50 [1]	TGI [1]	GI50 [2]	TGI [2]	GI50 [3]	GI50 [4]	TGI [4]	GI50 [5]	TGI [5]	GI50 [6]	TGI [6]	GI50 [7]	TGI [7]	GI50 [8]	TGI [8]	GI50 [9]	TGI [9]	GI50 [10]	TGI [10]	TGI [3]
COc1ccc(N(C)c2nc(N)nc3sc4c(c23)CCCC4)cc1	< 0.0125 µM	19.5 µM	< 0.01 µM	14.8 µM	< 0.01 µM	8.12 µM	26.3 µM	< 0.01 µM	15.6 µM	< 0.01 µM	14.2 µM	< 0.01 µM	> 42.2 µM	< 0.01 µM	4.19 µM	< 0.01 µM	10.3 µM	< 0.0125 µM	28 µM	
CN1CSC(=S)N(Cc2ccccc2)C1	16.5 µM	30.2 µM	3.18 µM	17.6 µM	4.46 µM	13.7 µM	30.4 µM	42.4 µM	> 100 µM	7.93 µM	21.5 µM	2.81 µM	> 100 µM	15.3 µM	36.8 µM	11.4 µM	45.7 µM	11.2 µM	> 100 µM	21.3 µM
CN(Cc1cnc2nc(N)nc(N)c2n1)c1ccc(C(=O)NC(CCC(=O)O)C(=O)O)cc1Br (centres undefined)	< 0.031 µM	> 100 µM	< 0.01 µM	> 100 µM	< 0.01 µM	0.168 µM	16.5 µM	< 0.01 µM	> 100 µM	< 0.01 µM		< 0.01 µM	> 100 µM	< 0.01 µM	4.9 µM	1.1 µM	6.39 µM	< 0.01 µM	> 46.3 µM	8.44 µM
c1ccc2c3c([nH]c2c1)C(c1ccc(C2NCCc4c2[nH]c2ccccc42)cc1)NCC3 (centres undefined)	1.81 µM	4.17 µM	0.393 µM	1.75 µM	1.62 µM	1.91 µM	3.52 µM	1.27 µM	2.69 µM	1.04 µM	2.26 µM	0.244 µM	0.488 µM	0.221 µM	0.449 µM	1.43 µM	3.82 µM	0.378 µM	1.53 µM	3.04 µM
CC[C@H](C)[C@H](NC(=O)[C@H]1CCCCN1C)C(=O)N(C)[C@H](C[C@@H](OC(C)=O)c1nc(C(=O)N[C@@H](Cc2ccccc2)C[C@H](C)C(=O)O)cs1)C(C)C	0.00324 µM and 0.00165 µM	> 16.5 µM		> 16.5 µM	0.000576 µM and < 0.00165 µM	> 16.5 µM	> 16.5 µM	0.000339 µM and 0.00165 µM	> 16.5 µM	0.00788 µM and 0.00165 µM	> 16.5 µM	0.000327 µM and 0.00165 µM	> 16.5 µM	0.000369 µM and 0.00165 µM	> 16.5 µM	0.00101 µM and 0.00165 µM	> 16.5 µM	0.00376 µM and 0.00165 µM	> 16.5 µM	0.00596 µM and < 0.00165 µM
O=C(Nc1nc2ccccc2s1)Nc1ccc([N+](=O)[O-])cc1Cl	10.4 µM	25.7 µM	2.55 µM	9.72 µM	1.69 µM	5.62 µM	14.2 µM	4.26 µM	> 28.8 µM	2.24 µM	6.44 µM	3.48 µM	> 100 µM	2.42 µM	6.81 µM	3.98 µM	> 20.8 µM	5.92 µM	> 47.4 µM	3.11 µM
CC[C@H](C)[C@H](NC(=O)CN(C)C)C(=O)N(C)[C@H](C[C@@H](OC(C)=O)c1nc(C(=O)NC23CC(C(=O)OC)(C2)C3)cs1)C(C)C	> 6.63 µM	> 25 µM	0.11 µM	> 25 µM	0.307 µM	> 25 µM	> 25 µM	0.804 µM	> 25 µM	12.6 µM	> 25 µM	0.0733 µM	> 25 µM	0.408 µM	> 25 µM	0.125 µM	> 25 µM	0.119 µM	> 25 µM	1.56 µM
CN(CC(=O)N(Cc1ccc(C2CCCCC2)cc1)c1ccc(C(=O)O)cc1)S(=O)(=O)c1c(F)c(F)c(F)c(F)c1F	10.8 µM	23.8 µM	1.65 µM	3.48 µM	1.69 µM	2.01 µM	3.71 µM	2.08 µM	3.96 µM	1.91 µM	4.73 µM	1.93 µM	5.81 µM	3.33 µM	10.4 µM	2.47 µM	6.04 µM	2.42 µM	6.14 µM	3.26 µM
CCOC(=O)COc1ccc2c(C)cc(=O)oc2c1		> 100 µM		> 100 µM			> 100 µM		> 100 µM		> 100 µM		> 100 µM		> 100 µM		> 100 µM		> 100 µM	> 100 µM
CC1=C(C(=O)Nc2ccc(Cl)c(C(=O)OC(C)C)c2)SCCO1		75.3 µM		> 90.4 µM			> 89.8 µM		> 100 µM		73 µM		> 90.2 µM		99.6 µM		73.9 µM		84.4 µM	> 97 µM
COc1nnc2ccc(N3CCC(c4ccc(OCCN5CCN(C)C(=O)[C@H]5C)cc4)CC3)nn12	0.492 µM	> 100 µM	0.0234 µM	> 100 µM	0.116 µM	0.187 µM	> 100 µM	0.315 µM	> 100 µM	0.0396 µM	> 100 µM	0.0755 µM	> 100 µM	0.373 µM	> 100 µM	0.0419 µM	> 62.7 µM	0.328 µM	> 100 µM	> 100 µM
NC(=S)c1c(N)n(C2OC(CO)C(O)C2O)c2ncnc(N)c12 (centres undefined)	0.342 µM	2.92 µM	0.0579 µM		0.241 µM	0.729 µM	4.8 µM	0.221 µM		0.27 µM	2.33 µM	0.0622 µM	0.494 µM	0.2 µM		0.223 µM	0.648 µM	0.245 µM	0.927 µM	1.06 µM
N#CC1c2ccccc2C=CN1C(=O)N(c1ccccc1)c1ccccc1 (centres undefined)	7.45 µM	24.3 µM	2.9 µM	9.56 µM	4.69 µM	2.29 µM	6.2 µM	9.82 µM	25.3 µM	1.49 µM	3.12 µM	3.06 µM	> 100 µM	15.9 µM	34.2 µM	3.14 µM	13.7 µM	2.44 µM	7.45 µM	17.9 µM
COc1cc(-c2nn(-c3cccc(NC(=O)c4ccc(Cl)c(C(F)(F)F)c4)c3)cc2-c2ccncc2)ccc1Cl	> 28.4 µM	> 32.5 µM	1.82 µM	> 32.5 µM	2.63 µM	3.6 µM	> 32.5 µM	0.798 µM	> 16.3 µM	0.551 µM	> 32.5 µM	1.21 µM	> 32.5 µM	2.21 µM	> 32.5 µM	1.78 µM	> 29.5 µM	5.24 µM	> 32.5 µM	15 µM
C=CC(=O)N1CC2(CC(n3nc(-c4ccc5c(cnn5C)c4)c(-c4c(Cl)c(C)cc5[nH]ncc45)c3C)C2)C1	4.03 µM	13.9 µM	2.2 µM	7.03 µM	2.15 µM	2.16 µM	6.57 µM	3.59 µM	22.8 µM	1.97 µM	4.68 µM	2.78 µM	> 100 µM	3.12 µM	10.3 µM	5.56 µM	62.9 µM	1.74 µM	9 µM	5.17 µM
